Measurements taken from patent US12497405B2, “Bicyclic heterocycle compounds methods of use thereof for the treatment of herpes viruses” (Merck Sharp & Dohme LLC, priority 2019, dated 2025).
Read-outs that look alike come from different tables or passages of the source.

What was measured:
Format in all cases: cell-based
HSV1 = assay: Viral qPCR assay, HSV1; conditions: infected cells, viral genome copies by qPCR normalized to PPIA, read-out: HSV1 Cell EC50
Method: (§1) MRC5 cells, Vero cells, and MeWo cells were obtained from ATCC, and were maintained at 37° C./5% CO2/90% relative humidity in Minimal Essential Medium with 10% fetal bovine serum, […] L-glutamine, 100 units/ml penicillin and 100 ug/ml streptomycin. Assay plates were prepared by dispensing compounds dissolved in DMSO into wells of 384 well collagen-coated plates using an ECHO acoustic dispenser. Each test compound was tested in a 10-point, serial 3-fold dilution. Controls included uninfected cells and infected cells treated only with DMSO. Assays were initiated by mixing selected cells, in suspension, with virus, and dispensing 50 μl/well infected cells to pre-plated compounds. Plates were incubated at 37° C./5% CO2/90% relative humidity for ˜72 hrs to permit genomic replication, and infected cells were lysed by the addition of an equal volume of lysis buffer (10 mM Tris-HCl, pH8, 50 mM KCl, 2 mM MgCl2, 0.45% NP-40, 0.45% Tween-20, and 100 µg/ml proteinase K). An aliquot of the lysate was then transferred to a 384-well PCR plate and incubated at 56° C. for 1 hour, and then at 95° C. for 10 minutes. Levels of the selected viral gene and of the cellular control, PPIA, were measured in separate 10 μl qPCR assays using TaqMan® Gene Expression Master Mix (Applied Biosystems), and an 7900HT Fast Real-Time PCR System with 384-Well Block Module. 7-point, serial 10-fold dilutions of a plasmid standard were run on each plate to generate a standard curve, and genome copies numbers were calculated by plotting experimental Ct onto linear regression of the standard curve. Viral genome copy numbers were normalized by cellular control copy number, and compound effects were normalized to the window defined by the controls. Calculated % effects were fit using a 4-parameter algorithm, and EC50 was reported.

CMV = assay: Viral qPCR assay, CMV; conditions: infected cells, viral genome copies by qPCR normalized to PPIA, read-out: CMV Cell EC50
Method: as §1

HSV2 = assay: Viral qPCR assay, HSV2; conditions: infected cells, viral genome copies by qPCR normalized to PPIA, read-out: HSV2 Cell EC50
Method: as §1

| Compound | EC50 (HSV1; ~72 hrs) | EC50 (CMV; ~72 hrs) | EC50 (HSV2; ~72 hrs) | EC50 (HSV1; Human alphaherpesvirus 1, 72 h) | EC50 (CMV; Human betaherpesvirus 5, 72 h) | EC50 (HSV2; Human alphaherpesvirus 2, 72 h) |
| --- | --- | --- | --- | --- | --- | --- |
| O=C1OC[C@@H]2C[C@@H](Oc3cc4c(=O)n(Cc5ccc(Cl)cc5)c(OC5CCC(O)CC5)nc4cc3-c3cnn(C(F)F)c3)CCN12 (single isomer, unassigned) [Example 143] | 213 nM | 95 nM | 181 nM |  |  |  |
| Cc1nc2cc(-c3ccncn3)c(O[C@H]3CCN4C(=O)OC[C@@H]4C3)cc2c(=O)n1Cc1ccc(Cl)cc1 [Example 130] |  |  |  | 167 nM | 190 nM | 287 nM |
| Cc1nc2cc(-c3cc4n(n3)CCN(C3CCOCC3)C4)c(O[C@H]3CCN4C(=O)OC[C@@H]4C3)cc2c(=O)n1Cc1ccc(Cl)cc1 [Example 108] |  |  |  | 198 nM | 201 nM | 87 nM |
| N[C@H](Cc1nc2cc(-c3cnn(C(F)F)c3)c(O[C@H]3CCN4C(=O)OC[C@@H]4C3)cc2c(=O)n1Cc1ccc(Cl)cc1)C(F)(F)F [Example 156] |  |  |  | 176 nM | 140 nM | 93 nM |
| Cc1nn(C(F)F)cc1-c1cc2nc(C)n(Cc3ccc(Cl)cc3)c(=O)c2cc1O[C@H]1CCN2C(=O)OC[C@@H]2C1 [Example 92] |  |  |  | 796 nM | 379 nM | 506 nM |
| Cc1nc2cc(-c3cncnc3)c(O[C@H]3CCN4C(=O)OC[C@@H]4C3)cc2c(=O)n1Cc1ccc(Cl)cc1 [Example 118] |  |  |  | 244 nM | 135 nM | 180 nM |
| Cc1nccc(-c2cc3nc(C)n(Cc4ccc(Cl)cc4)c(=O)c3cc2O[C@H]2CCN3C(=O)OC[C@@H]3C2)n1 [Example 131] |  |  |  | 223 nM | 102 nM | 157 nM |
| Cc1cnc(-c2cc3nc(C)n(Cc4ccc(Cl)cc4)c(=O)c3cc2O[C@H]2CCN3C(=O)OC[C@@H]3C2)cn1 [Example 128] |  |  |  | 217 nM | 114 nM | 131 nM |
| Cc1nc2cc(-c3cccnn3)c(O[C@H]3CCN4C(=O)OC[C@@H]4C3)cc2c(=O)n1Cc1ccc(Cl)cc1 [Example 127] |  |  |  | 484 nM | 280 nM | 793 nM |
| Cc1ccc(-c2cc3nc(C)n(Cc4ccc(Cl)cc4)c(=O)c3cc2O[C@H]2CCN3C(=O)OC[C@@H]3C2)nn1 [Example 110] |  |  |  | 288 nM | 200 nM | 133 nM |
| COc1ncncc1-c1cc2nc(C)n(Cc3ccc(Cl)cc3)c(=O)c2cc1O[C@H]1CCN2C(=O)OC[C@@H]2C1 [Example 94] |  |  |  | 2410 nM | 1470 nM | 1880 nM |
| Cc1nc2cc(-c3cc4cncnn4c3)c(O[C@H]3CCN4C(=O)OC[C@@H]4C3)cc2c(=O)n1Cc1ccc(Cl)cc1 [Example 107] |  |  |  | 52 nM | 52 nM | 31 nM |
| O=C1OC[C@@H]2C[C@@H](Oc3cc4c(=O)n(Cc5ccc(Cl)cc5)c(N5CC(O)C5)nc4cc3-c3cnn(C(F)F)c3)CCN12 [Example 145] |  |  |  | 108 nM | 101 nM | 112 nM |
| Cc1nc2cc(-c3cnc4nccn4c3)c(O[C@H]3CCN4C(=O)OC[C@@H]4C3)cc2c(=O)n1Cc1ccc(Cl)cc1 [Example 96] |  |  |  | 2920 nM | 2060 nM | 3280 nM |
| Cc1nc2cc(-c3cn4cccnc4n3)c(O[C@H]3CCN4C(=O)OC[C@@H]4C3)cc2c(=O)n1Cc1ccc(Cl)cc1 [Example 116] |  |  |  | 106 nM | 127 nM | 62 nM |
| Cc1nc2cc(-c3cc4ncccn4n3)c(O[C@H]3CCN4C(=O)OC[C@@H]4C3)cc2c(=O)n1Cc1ccc(Cl)cc1 [Example 100] |  |  |  | 86 nM | 63 nM | 43 nM |
| Nc1nc2cc(-c3cnn(C(F)F)c3)c(O[C@H]3CCN4C(=O)OC[C@@H]4C3)cc2c(=O)n1Cc1ccc(Cl)cc1 [Example 111] |  |  |  | 101 nM | 85 nM | 60 nM |
| O=C1OC[C@@H]2C[C@@H](Oc3cc4c(=O)n(Cc5ccc(Cl)cc5)cnc4nc3-c3cnco3)CCN12 [Example 37] |  |  |  | 19 nM | 20 nM | 11 nM |
| O=C1OC[C@@H]2C[C@@H](Oc3cc4c(=O)n(Cc5ccc(Cl)cc5)c(O)nc4cc3-c3cnn(C(F)F)c3)CCN12 [Example 150] |  |  |  | 53 nM | 79 nM | 88 nM |

| Compound | EC50 (HSV1; ~72 hrs) | EC50 (CMV; ~72 hrs) | EC50 (HSV2; ~72 hrs) | EC50 (HSV1; Human alphaherpesvirus 1, 72 h) | EC50 (CMV; Human betaherpesvirus 5, 72 h) | EC50 (HSV2; Human alphaherpesvirus 2, 72 h) |
| --- | --- | --- | --- | --- | --- | --- |
| COc1cnc(-c2cc3nc(C)n(Cc4ccc(Cl)cc4)c(=O)c3cc2O[C@H]2CCN3C(=O)OC[C@@H]3C2)cn1 [Example 113] |  |  |  | 2680 nM | 2970 nM | 1690 nM |
| Cc1nc2cc(-c3cnc(C(C)(C)O)nc3)c(O[C@H]3CCN4C(=O)OC[C@@H]4C3)cc2c(=O)n1Cc1ccc(Cl)cc1 [Example 154] |  |  |  | 403 nM | 180 nM | 485 nM |
| Cc1cnc(-c2cc3nc(C)n(Cc4ccc(Cl)cc4)c(=O)c3cc2O[C@H]2CCN3C(=O)OC[C@@H]3C2)nc1 [Example 117] |  |  |  | 652 nM | 304 nM | 455 nM |
| O=C1OC[C@@H]2C[C@@H](Oc3cc4c(=O)n(Cc5ccc(Cl)cc5)c(N5CCOCC5)nc4cc3-c3cnn(C(F)F)c3)CCN12 [Example 142] |  |  |  | 154 nM | 129 nM | 38 nM |
| O=C1OC[C@@H]2C[C@@H](Oc3cc4c(=O)n(Cc5ccc(Cl)cc5)c(CCN5CCOCC5)nc4cc3-c3cnn(C(F)F)c3)CCN12 [Example 120] |  |  |  | 2410 nM | 957 nM | 1020 nM |
| O=C1OC[C@@H]2C[C@@H](Oc3cc4c(=O)n(Cc5ccc(Cl)cc5)c(CNCC(F)(F)F)nc4cc3-c3cnn(C(F)F)c3)CCN12 [Example 133] |  |  |  | 238 nM | 167 nM | 106 nM |
| COc1cnnc(-c2cc3nc(C)n(Cc4ccc(Cl)cc4)c(=O)c3cc2O[C@H]2CCN3C(=O)OC[C@@H]3C2)c1 [Example 132] |  |  |  | 1470 nM | 1470 nM | 822 nM |
| Cc1nc2cc(-c3cn4ccccc4n3)c(O[C@H]3CCN4C(=O)OC[C@@H]4C3)cc2c(=O)n1Cc1ccc(Cl)cc1 [Example 104] |  |  |  | 45 nM | 99 nM | 32 nM |
| N[C@@H](Cc1nc2cc(-c3cnn(C(F)F)c3)c(O[C@H]3CCN4C(=O)OC[C@@H]4C3)cc2c(=O)n1Cc1ccc(Cl)cc1)C(F)(F)F [Example 157] |  |  |  | 176 nM | 170 nM | 81 nM |
| Cc1nc2cc(-c3ccc4ncoc4c3)c(O[C@H]3CCN4C(=O)OC[C@@H]4C3)cc2c(=O)n1Cc1ccc(Cl)cc1 [Example 89] |  |  |  | 436 nM | 375 nM | 273 nM |
| O=C1OC[C@@H]2C[C@@H](Oc3cc4c(=O)n(Cc5ccc(Cl)cc5)c(OC5CCC(O)CC5)nc4cc3-c3cnn(C(F)F)c3)CCN12 (single isomer, unassigned) [Example 141] |  | 205 nM |  | 258 nM |  | 184 nM |
| Cc1nc2cc(-c3cc4n(n3)C(C(F)(F)F)CN(C)C4)c(O[C@H]3CCN4C(=O)OC[C@@H]4C3)cc2c(=O)n1Cc1ccc(Cl)cc1 (single isomer, unassigned) [Example 151] |  |  |  | 233 nM | 178 nM | 176 nM |
| COc1nc2cc(-c3cnn(C(F)F)c3)c(O[C@H]3CCN4C(=O)OC[C@@H]4C3)cc2c(=O)n1Cc1ccc(Cl)cc1 [Example 148] |  |  |  | 213 nM | 275 nM | 78 nM |
| Cc1nc2cc(-c3nn4ccnc4s3)c(O[C@H]3CCN4C(=O)OC[C@@H]4C3)cc2c(=O)n1Cc1ccc(C#N)cc1 [Example 146] |  |  |  | 93 nM | 67 nM | 143 nM |
| O=C1OC[C@@H]2C[C@@H](Oc3cc4c(=O)n(Cc5ccc(Cl)cc5)c(CN5CCC5)nc4cc3-c3cnn(C(F)F)c3)CCN12 [Example 129] |  |  |  | 178 nM | 115 nM | 135 nM |
| O=C1OC[C@@H]2C[C@@H](Oc3cc4c(=O)n(Cc5ccc(Cl)cc5)c(OCC5CC5)nc4cc3-c3cnn(C(F)F)c3)CCN12 [Example 135] |  |  |  | 799 nM | 939 nM | 649 nM |
| Cc1nc2cc(-c3nc4ccccn4n3)c(O[C@H]3CCN4C(=O)OC[C@@H]4C3)cc2c(=O)n1Cc1ccc(Cl)cc1 [Example 105] |  |  |  | 48 nM | 112 nM | 55 nM |
| Cc1nc2cc(-c3cnc(C4CCOCC4)nc3)c(O[C@H]3CCN4C(=O)OC[C@@H]4C3)cc2c(=O)n1Cc1ccc(Cl)cc1 [Example 115] |  |  |  | 313 nM | 258 nM | 111 nM |
| O=C1OC[C@@H]2C[C@@H](Oc3cc4c(=O)n(Cc5ccc(Cl)cc5)c(OCCO)nc4cc3-c3cnn(C(F)F)c3)CCN12 [Example 102] |  |  |  | 71 nM | 135 nM | 37 nM |
